Laboratory results: ChEMBL document CHEMBL1201862, “PubChem BioAssay data set” (2004)
“And” between values parts separate entries of the source, which are not always exact repeats. Equal values may be shown once. The source made the active and inactive calls.

How the values were obtained:
[1] = biological target: T1, Cytochrome P450 3A4 (Homo sapiens, UniProt P08684); details: Potency
[2] = biological target: T2, Protein skinhead-1 (Caenorhabditis elegans, UniProt P34707); assay type: functional
T2 sequence (P34707 whole entry): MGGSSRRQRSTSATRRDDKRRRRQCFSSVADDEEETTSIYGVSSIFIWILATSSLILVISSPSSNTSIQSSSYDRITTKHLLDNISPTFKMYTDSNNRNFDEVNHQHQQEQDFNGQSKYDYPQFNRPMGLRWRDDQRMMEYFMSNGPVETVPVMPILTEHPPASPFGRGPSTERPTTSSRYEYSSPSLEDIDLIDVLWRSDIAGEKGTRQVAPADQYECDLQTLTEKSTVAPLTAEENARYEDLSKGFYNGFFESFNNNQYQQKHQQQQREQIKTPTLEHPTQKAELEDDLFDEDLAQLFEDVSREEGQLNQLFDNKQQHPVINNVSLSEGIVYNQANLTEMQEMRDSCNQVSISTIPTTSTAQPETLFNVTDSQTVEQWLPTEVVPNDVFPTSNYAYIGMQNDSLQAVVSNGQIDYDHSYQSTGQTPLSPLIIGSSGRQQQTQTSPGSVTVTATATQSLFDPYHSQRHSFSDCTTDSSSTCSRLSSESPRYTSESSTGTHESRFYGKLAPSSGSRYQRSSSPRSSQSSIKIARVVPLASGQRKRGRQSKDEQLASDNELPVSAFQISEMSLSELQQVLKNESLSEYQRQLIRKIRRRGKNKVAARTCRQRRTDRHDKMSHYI

[3] = biological target: Nonstructural protein 1 (Influenza A virus, UniProt Q194T2); assay type: functional, Influenza A virus (A/California/07/2009(H1N1))
Chain of Nonstructural protein 1 (Q194T2 whole entry): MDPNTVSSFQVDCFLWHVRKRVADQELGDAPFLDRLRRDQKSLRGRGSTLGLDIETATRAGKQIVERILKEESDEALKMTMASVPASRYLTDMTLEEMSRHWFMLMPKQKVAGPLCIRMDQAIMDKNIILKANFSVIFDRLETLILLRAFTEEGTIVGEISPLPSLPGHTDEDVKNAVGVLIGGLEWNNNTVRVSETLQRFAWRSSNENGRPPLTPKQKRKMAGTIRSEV

[4] = tested on: Vero; assay: cells; assay type: functional, cell-based; details: Chlorocebus sabaeus
[5] = Luminescence Cell-Based Dose Retest to Confirm Inhibitors of Cancer Stem Cells. [Related pubchem assays (depositor defined):AID2717, AID2721]; assay type: functional; details: Homo sapiens
[6] = biological target: T3, Replicative DNA helicase DnaB (Mycobacterium tuberculosis, UniProt P9WMR3); assay: DnaB intein splicing inhibitors, dose response, biochemical, cell-free fluorescence (AID 449749); assay type: functional
T3 sequence (P9WMR3 whole entry): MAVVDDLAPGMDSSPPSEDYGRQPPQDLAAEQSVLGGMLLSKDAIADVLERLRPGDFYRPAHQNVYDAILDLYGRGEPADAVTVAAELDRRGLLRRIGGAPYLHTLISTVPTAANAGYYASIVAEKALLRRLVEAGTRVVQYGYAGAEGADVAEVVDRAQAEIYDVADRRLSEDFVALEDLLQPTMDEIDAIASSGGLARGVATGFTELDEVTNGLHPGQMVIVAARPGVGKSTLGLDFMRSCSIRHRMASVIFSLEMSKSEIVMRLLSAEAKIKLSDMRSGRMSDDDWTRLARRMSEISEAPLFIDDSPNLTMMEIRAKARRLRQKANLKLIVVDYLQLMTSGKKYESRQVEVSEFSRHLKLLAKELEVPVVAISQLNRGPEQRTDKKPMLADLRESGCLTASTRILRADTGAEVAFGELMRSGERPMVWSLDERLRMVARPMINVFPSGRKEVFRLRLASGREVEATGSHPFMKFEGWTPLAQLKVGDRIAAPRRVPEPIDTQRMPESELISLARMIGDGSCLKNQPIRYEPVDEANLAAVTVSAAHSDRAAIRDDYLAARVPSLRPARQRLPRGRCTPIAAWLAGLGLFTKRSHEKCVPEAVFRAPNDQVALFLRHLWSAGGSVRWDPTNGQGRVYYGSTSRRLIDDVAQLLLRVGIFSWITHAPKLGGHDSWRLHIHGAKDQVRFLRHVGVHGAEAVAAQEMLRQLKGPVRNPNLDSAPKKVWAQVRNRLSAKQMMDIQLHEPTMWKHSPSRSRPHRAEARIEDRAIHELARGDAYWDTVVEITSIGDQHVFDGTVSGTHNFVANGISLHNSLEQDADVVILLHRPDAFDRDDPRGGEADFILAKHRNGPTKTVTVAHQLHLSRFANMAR

[7] = tested on: Vero; assay: cells; assay type: functional; details: Chlorocebus sabaeus
[8] = biological target: T4, Protein RecA (Mycobacterium tuberculosis, UniProt P9WHJ3); assay: Fluorescence Cell-Free Homogeneous Dose Retest to Identify Inhibitors of RecA-Intein Splicing Activity. [Related pubchem assays (depositor defined):AID2097, AID2223, AID489010, AID492950]; assay type: functional
T4 sequence (P9WHJ3 whole entry): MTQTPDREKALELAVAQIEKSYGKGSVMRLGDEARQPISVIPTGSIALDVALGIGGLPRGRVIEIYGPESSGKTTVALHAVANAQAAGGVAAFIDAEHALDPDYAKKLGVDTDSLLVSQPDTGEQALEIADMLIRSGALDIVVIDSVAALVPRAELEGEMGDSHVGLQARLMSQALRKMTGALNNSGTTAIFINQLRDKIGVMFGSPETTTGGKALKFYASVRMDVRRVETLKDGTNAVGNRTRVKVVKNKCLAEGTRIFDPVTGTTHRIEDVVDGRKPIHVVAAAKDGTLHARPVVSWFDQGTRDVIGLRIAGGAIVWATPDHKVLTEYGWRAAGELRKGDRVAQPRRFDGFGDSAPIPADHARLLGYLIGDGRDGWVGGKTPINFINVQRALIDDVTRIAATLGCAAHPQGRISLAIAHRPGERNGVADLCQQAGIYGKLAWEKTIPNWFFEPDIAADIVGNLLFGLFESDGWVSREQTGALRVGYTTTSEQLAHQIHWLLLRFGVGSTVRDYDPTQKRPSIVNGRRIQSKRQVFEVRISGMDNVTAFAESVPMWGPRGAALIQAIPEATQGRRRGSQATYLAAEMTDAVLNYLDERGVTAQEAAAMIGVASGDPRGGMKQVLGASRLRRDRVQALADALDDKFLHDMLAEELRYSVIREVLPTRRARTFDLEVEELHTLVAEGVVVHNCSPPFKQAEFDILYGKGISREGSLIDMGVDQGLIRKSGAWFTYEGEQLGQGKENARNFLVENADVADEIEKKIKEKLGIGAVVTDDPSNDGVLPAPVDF

[9] = biological target: T5, Cytochrome P450 2C9 (Homo sapiens, UniProt P11712)
T5 sequence (P11712 whole entry): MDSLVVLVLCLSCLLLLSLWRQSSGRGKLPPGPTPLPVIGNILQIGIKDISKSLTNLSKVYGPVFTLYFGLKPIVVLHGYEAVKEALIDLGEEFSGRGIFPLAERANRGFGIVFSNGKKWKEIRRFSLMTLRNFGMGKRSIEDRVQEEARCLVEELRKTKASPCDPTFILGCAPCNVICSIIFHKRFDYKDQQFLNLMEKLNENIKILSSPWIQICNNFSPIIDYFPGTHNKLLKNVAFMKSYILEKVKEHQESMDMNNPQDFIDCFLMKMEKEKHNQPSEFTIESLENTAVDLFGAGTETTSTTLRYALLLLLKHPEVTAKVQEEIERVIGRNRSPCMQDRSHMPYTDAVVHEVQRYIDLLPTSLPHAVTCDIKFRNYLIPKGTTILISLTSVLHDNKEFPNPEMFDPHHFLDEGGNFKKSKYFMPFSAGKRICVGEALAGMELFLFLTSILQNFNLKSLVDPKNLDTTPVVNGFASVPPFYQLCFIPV

[10] = biological target: T1, Cytochrome P450 3A4
[11] = biological target: Cytochrome P450 2D6 (Homo sapiens, UniProt P10635);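 further: CYP2D6 member of a cytochrome P450 panel assay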
Chain of Cytochrome P450 2D6 (P10635 whole entry): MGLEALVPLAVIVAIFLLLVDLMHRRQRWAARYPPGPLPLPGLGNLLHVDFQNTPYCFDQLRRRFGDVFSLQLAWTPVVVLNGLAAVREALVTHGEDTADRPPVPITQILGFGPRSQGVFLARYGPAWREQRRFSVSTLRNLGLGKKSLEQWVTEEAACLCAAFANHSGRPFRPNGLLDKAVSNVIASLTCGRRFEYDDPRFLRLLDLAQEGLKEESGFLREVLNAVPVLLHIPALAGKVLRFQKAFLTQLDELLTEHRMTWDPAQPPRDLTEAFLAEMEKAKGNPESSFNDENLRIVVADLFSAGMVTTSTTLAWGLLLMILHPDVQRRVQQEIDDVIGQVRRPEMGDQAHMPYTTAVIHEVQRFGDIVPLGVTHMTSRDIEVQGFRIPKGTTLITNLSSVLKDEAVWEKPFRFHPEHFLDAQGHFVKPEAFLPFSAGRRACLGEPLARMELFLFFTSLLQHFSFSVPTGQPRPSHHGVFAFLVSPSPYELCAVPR

[12] = biological target: Paired box protein Pax-8 (Homo sapiens, UniProt Q06710); assay: PAX8 transcriptional activity inhibition in RMG-I – RMG-I cells, luciferase, cherry-pick, dose response (AID 687027); assay type: functional, cell-based;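 further: luciferase reporter driven by Pax8 target thyroperoxidase promoter measured by SteadyGlo luminescence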
Chain of Paired box protein Pax-8 (Q06710 whole entry): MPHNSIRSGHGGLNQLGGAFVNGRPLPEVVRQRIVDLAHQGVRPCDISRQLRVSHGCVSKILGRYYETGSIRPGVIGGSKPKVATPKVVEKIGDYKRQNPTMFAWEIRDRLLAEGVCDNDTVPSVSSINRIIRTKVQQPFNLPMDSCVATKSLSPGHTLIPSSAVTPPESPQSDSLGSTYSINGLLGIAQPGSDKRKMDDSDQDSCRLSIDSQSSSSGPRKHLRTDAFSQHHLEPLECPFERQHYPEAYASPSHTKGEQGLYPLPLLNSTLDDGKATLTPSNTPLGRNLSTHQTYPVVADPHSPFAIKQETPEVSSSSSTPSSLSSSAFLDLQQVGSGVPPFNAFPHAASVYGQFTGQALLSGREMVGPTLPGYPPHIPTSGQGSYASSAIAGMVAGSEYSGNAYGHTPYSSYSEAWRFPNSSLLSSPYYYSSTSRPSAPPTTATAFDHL

[13] = reduction of Shn3 3'UTR-driven luciferase in osteoblasts – cell-based, Clone20 osteoblasts, firefly luciferase, cherry-picked, dose response (AID 624132); assay type: functional;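 further: firefly luciferase luminescence from reporter carrying the Shn3 3'UTR in osteoblasts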
[14] = non-specific 3'UTR reporter inhibition in Clone20-Shn3RL – cell-based, Renilla luciferase, cherry-picked, counter-screen for Shn3 inhibitor project, dose response (AID 624133); assay type: functional
[15] = tested on: H9c2; assay: cells; assay type: functional, cell-based; details: Rattus norvegicus, H9c2, Myocardium;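 further: confirmatory concentration-response retest of ultra-high-throughput screening hits for modulation of myocardial damage; cell death induced by hydrogen peroxide oxidative stress; compound pretreatment for 60 min then peroxide exposure for 2 h; potency is for protecting the cells against peroxide damage rather than for killing them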
[16] = toxicity to human hepatoma HepG2 cells – cell-based, cherry-picked samples, cytotoxicity control, dose response (AID 1159577); assay type: functional
[17] = P. falciparum Dd2 growth inhibitors, dose response, SYBR Green, cherry-picked samples (AID 1159567); assay type: functional, cell-based
[18] = biological target: T6, Cytochrome P450 1A2 (Homo sapiens, UniProt P05177);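 further: PubChem cytochrome P450 panel assay, CYP1A2 panel member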
T6 sequence (P05177 whole entry): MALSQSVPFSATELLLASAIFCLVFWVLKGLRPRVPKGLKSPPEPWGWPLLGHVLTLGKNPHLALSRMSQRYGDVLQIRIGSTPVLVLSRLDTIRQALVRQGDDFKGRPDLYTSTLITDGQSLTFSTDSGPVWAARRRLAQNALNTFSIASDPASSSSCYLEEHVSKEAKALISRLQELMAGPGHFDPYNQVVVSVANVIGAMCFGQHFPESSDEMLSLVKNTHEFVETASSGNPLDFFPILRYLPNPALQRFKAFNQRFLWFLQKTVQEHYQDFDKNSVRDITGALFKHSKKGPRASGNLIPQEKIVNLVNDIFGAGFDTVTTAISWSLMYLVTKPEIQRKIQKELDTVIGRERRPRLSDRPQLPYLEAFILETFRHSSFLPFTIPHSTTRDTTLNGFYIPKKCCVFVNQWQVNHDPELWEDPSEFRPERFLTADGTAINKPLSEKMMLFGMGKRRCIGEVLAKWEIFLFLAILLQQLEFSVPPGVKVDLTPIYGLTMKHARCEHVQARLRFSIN

[19] = biological target: T5, Cytochrome P450 2C9; remark: listed apart in the source
[20] = biological target: T7, Heat shock factor protein 1 (Mus musculus, UniProt P38532); assay: enhancement of HSF1-driven luciferase signal – cell-based, NIH3T3, luminescence, dose retest, confirmation (AID 435004); assay type: functional;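 further: stress induced by proteasome inhibitor MG132 added 30 min after compound; luciferase reporter driven by HSF1 response element in NIH3T3 cells; actives raise luminescence as potentiators of the MG132 stress response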
T7 sequence (P38532 whole entry): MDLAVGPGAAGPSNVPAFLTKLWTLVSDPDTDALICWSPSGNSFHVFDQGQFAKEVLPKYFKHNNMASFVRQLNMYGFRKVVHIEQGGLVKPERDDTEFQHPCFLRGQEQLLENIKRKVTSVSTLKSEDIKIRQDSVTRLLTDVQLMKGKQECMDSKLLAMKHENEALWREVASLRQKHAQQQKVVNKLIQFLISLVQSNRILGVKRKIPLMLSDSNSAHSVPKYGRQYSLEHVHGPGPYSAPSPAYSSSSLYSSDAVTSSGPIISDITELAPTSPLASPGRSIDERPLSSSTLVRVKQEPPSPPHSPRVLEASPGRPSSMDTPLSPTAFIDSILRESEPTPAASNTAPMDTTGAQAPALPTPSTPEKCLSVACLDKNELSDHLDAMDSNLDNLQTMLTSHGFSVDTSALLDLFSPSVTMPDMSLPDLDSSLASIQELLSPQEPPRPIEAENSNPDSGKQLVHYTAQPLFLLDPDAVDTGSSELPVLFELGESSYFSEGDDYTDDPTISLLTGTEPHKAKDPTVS

T1 sequence (P08684 whole entry): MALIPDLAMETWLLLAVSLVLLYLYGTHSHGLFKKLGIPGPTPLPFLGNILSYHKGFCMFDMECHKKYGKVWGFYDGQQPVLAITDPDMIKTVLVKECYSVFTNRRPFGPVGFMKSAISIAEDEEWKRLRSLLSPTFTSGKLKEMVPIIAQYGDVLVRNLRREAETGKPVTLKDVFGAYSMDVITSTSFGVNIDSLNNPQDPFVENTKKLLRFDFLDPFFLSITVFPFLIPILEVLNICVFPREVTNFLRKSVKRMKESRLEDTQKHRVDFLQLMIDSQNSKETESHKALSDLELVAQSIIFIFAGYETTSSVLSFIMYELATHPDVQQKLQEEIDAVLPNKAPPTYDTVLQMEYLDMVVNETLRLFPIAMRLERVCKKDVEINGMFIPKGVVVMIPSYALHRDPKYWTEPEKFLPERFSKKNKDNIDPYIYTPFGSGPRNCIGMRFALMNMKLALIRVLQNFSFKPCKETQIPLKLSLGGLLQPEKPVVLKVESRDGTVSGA

For N#Cc1ccc(C23CC4(C2)[C@H](CN(P(=O)(c2ccccc2)c2ccccc2)[C@@H]4c2ccccc2)C3c2ccc(Cl)nc2)cc1 (some centres undefined), the AC50 [1] was 2 µM (inconclusive).
With CC1=NN(c2ccccc2)C(=O)/C1=C\C=C1/N(C)c2ccccc2C1(C)C the IC50 [2] was 21.9 µM (active) and the IC50 [3] was 11.8 µM (active).
For C#C[C@]1(OC(C)=O)CCC2C3CCC4=CC(=O)CCC4C3CC[C@]21C (some centres undefined), the AC50 [1] was 39.8 µM (inconclusive).
For COC(=O)[C@]1(C)C[C@H]1[C@H](NP(=O)(c1ccccc1)c1ccccc1)c1ccccc1, the AC50 [1] was 12.6 µM (inconclusive).
With COc1cccc(/C=C/C(=O)c2ccc(NS(=O)(=O)c3ccc(C)cc3)cc2)c1 the IC50 [4] was 24 µM (active), the AC50 [5] was 2.91 µM (active) and the AC50 [6] was 9.15 µM (active). The CC50 [7] was 20.4 µM (active) and the EC50 [8] was 15.4 µM (active).
In the case of CC[C@@H](c1ccccc1)n1c(=O)n2n(c1=O)[C@H]1[C@H](O)[C@H]3O[C@@H]3/C(=N/OC/C=C(\C)CCC=C(C)C)[C@@H]1CC2, the AC50 [9] is reported as “inconclusive” and the AC50 [10] is reported as 3.98 µM (inconclusive).
With COc1ccc(C2COc3c(ccc(O)c3OC)C2)c(OC)c1O (centres undefined) the AC50 [1] was 25.1 µM (inconclusive).
With COc1cc(OC)c(C(C)=O)c(O)c1C the AC50 [1] was 0.316 µM (inconclusive).
For c1ccc(-c2cn(C[C@H]3CC[C@@H]([C@@H]4CC[C@H](Cn5cc(-c6ccccn6)nn5)O4)O3)nn2)nc1, the IC50 [3] was 5.72 µM (active).
With CCC1=C2CC[C@H]3C(=O)N(C)C(=O)[C@H]3[C@H]2[C@@]2(C)C(=O)N(CC(=O)OC)C(=O)N2C1=O the AC50 [1] was 25.1 µM (inconclusive).
For CO[C@H]1COC(=O)C/C=C\[C@@H](C)COC(=O)[C@H]2CCCN2C(=O)C/C=C\[C@H]1C, the AC50 [9] was “inconclusive”.
In the case of CCCCN=C(S)NNC(=O)c1csc2c1CCC(C)C2 (centres undefined), the AC50 [11] is reported as 22.4 µM (inconclusive), the AC50 [9] is reported as “inconclusive” and the AC50 [10] is reported as 15.8 µM (inconclusive).
In the case of CC(C)(O)/C=C/C(=O)C(C)(O)C1C(O)CC2(C)C3CC=C4C(C=C(O)C(=O)C4(C)C)C3(C)C(=O)CC12C (centres undefined), the AC50 [12] is reported as < 0.26 µM (active), the IC50 [4] is reported as > 25 µM (active) and the AC50 [13] is reported as 1.83 µM (active). The CC50 [7] was 0.08 µM (active) and the AC50 [14] was 4.47 µM (active).
In the case of Cc1cc(NC(=O)c2ccc3nccnc3c2)ccc1Br, the IC50 [4] is reported as > 25 µM (active).
For Cc1ccc(OCC(=O)N/N=C/c2cccc3cccnc23)cc1, the IC50 [15] was 14.1 µM (active) and the IC50 [3] was 25.6 µM (active).
With C[C@@H]1CN([C@@H](C)CO)C(=O)c2ccccc2-c2ccccc2CO[C@H]1CN(C)Cc1ccccc1C(F)(F)F the AC50 [12] was 12.3 µM (active), the AC50 [16] was 7.72 µM (active) and the AC50 [17] was 2.97 µM (active).
For Cc1[nH]c2ccc(O)cc2c1CCN, the AC50 [11] was 20 µM (inconclusive) and 39.8 µM (inconclusive), the AC50 [18] was 31.6 µM (inconclusive) and 20 µM (inconclusive) and the AC50 [9] was 39.8 µM (inconclusive). The AC50 [19] was 39.8 µM (inconclusive).
In the case of Cc1ccccc1-c1ccc([C@H]2[C@@H]3CN(Cc4cccnc4)C[C@H]2N3)cc1, the AC50 [16] is reported as 24.4 µM (active) and the AC50 [17] is reported as 4.95 µM (active).
With Cc1ccccc1-c1ccc([C@@H]2[C@@H]3CN(Cc4cccnc4)C[C@H]2N3)cc1 the AC50 [16] was 9.78 µM (active) and the AC50 [17] was 1.19 µM (active).
For Cc1cccc(-c2ccc([C@H]3[C@@H](CO)N4CCCCN(S(=O)(=O)c5cccc(C)c5)C[C@H]34)cc2)c1, the AC50 [16] was 11.6 µM (active) and the AC50 [17] was 1.87 µM (active).
In the case of COc1ccc(/C=C\c2nc(=O)c3ccccc3o2)cc1, the EC50 [20] is reported as 20.9 µM (active), the IC50 [4] is reported as 19.9 µM (active) and the CC50 [7] is reported as 16.6 µM (active).
